Literature values, collected in patent publication US12252709B2, “Culture media for culturing pluripotent stem cells in suspension” (Accellta Ltd., priority 2016, dated 2025).
Read-outs that look alike come from different tables or passages of the source.

Assays:
[1] = system: hESCs; conditions: for background differentiation: MATRIGEL matrix
[2] = system: hESCs; conditions: Matrigel matrix, seven days (Sato et al, 2004)

For “bFGF: basic fibroblast growth factor, medium supplement”, the background differentiation ([1]; serum replacement, 40 ng/ml bFGF [Xu et al, 2005b]) is listed as 28%.

For `O=C1Nc2cc(Br)ccc2/C1=C1/Nc2ccccc2/C1=N\O` [BIO, 6-bromoindirubin-3′-oxime], the “maintenance of hESC properties” value [2] is listed as “maintained hESC properties”.

B1: Flt-3 ligand: protein factor added to bFGF medium (protein, UniProt P49771 27-235, looked up)
Fms-related tyrosine kinase 3 …: TQDCSFQHSPISSDFAVKIRELSDYLLQDYPVTVASNLQDEELCGGLWRLVLAQRWMERLKTVAGSKMQGLLERVNTEIHFVTKCAFQPPPSCLRFVQTNISRLLQETSEQLVALKPWITRQNFSRCLELQCQPDSSTLPPPWSPRPLEATAPTAPQPPLLLLLLLPVGLLLLAAAWCLHWQRTRRRTPRPGEQVPPVPSPQDLLLVEH
In the case of B1, the differentiation ([1]; as before with 75 ng/ml of Flt-3 ligand added) is listed as 20%.

B2: Noggin: protein factor used with 40 ng/ml bFGF (protein, UniProt Q13253 28-232, looked up)
Noggin: QHYLHIRPAPSDNLPLVDLIEHPDPIFDPKEKDLNETLLRSLLGGHYDPGFMATSPPEDRPGGGGGAAGGAEDLAELDQLLRQRPSGAMPSEIKGLEFSEGLAQGKKQRLSKKLRRKLQMWLWSQTFCPVLYAWNDLGSRFWPRYVKVGSCFSKRSCSVPEGMVCKPSKSVHLTVLRWRCQRRGGQRCGWIPIQYPIISECKCSC
For B2, the background differentiation ([1]; 40 ng/ml bFGF and 0.5 μg/ml Noggin [Xu et al, 2005]) is given as 10%.
